{"source": "patent US6645917B2", "about": "“Composition for hybrid seed production, process for the preparation of such composition and use thereof” (Council of Scientific and Industrial Research, priority 2002, dated 2003)", "key": {"wheat plants": {"test_system": "wheat plants", "test": "Spray of chemicals in combinations and as individual molecules on wheat plants (Table 3)", "format": "in vivo", "experimental": "The effects of the composition with varied concentration of compound 1 and 2 were evaluated for two crops years. The aqueous solution of the compositions were sprayed on the wheat plants when the Spike length of 7-12 mm. i.e. growth of 20-22 of Zadoks scale, reached between 40-50 days after germination.\nIn a future of the present invention the calculation of male/female sterility is based on number of seeds and is done as per formula given below:\nMale Sterility (%)=(Untreated Control−Bagged Spikes×100/Untreated Control\nFemale Sterility (%)=(Untreated Control−Bagged Spikes)×100/Untreated Control\nThe chemical formulation can be used at a rate of 1.8 kg/ha or below (following male: female ratio of 1:2) depending upon genotypes used, date of planting and growth stage. The female lines were sprayed with the chemical combination at the appropriate growth stage and concentration. The spike of 7-12 mm i.e. growth stage 20-22 of Zadoks scale (Zadoks J V, Chang T T and Konzak C F 1974. Weed Research 14: 415421) was ideal for generating effective male sterility in spring wheat. This stage is reached between 40-50 days after germination at optimum time of sowing in most of the genotypes. The date of spray varied depending upon the genotype used. A high volume spray pump may be used so as to cover the complete female plant."}, "wheat [1]": {"test_system": "wheat", "set-up": "Effective dose: unit not given beside the values", "conditions": "cited from earlier work; for Female sterility / Germination (%) / Max. seed shriveling (Scale 1-5) / Seed setting: at effective dose; for Female sterility / Germination (%) / Max. seed shriveling (Scale 1-5) / Seed setting / Effective dose: 7-8 mm spike length; for Effective dose: minimum effective dose for complete male sterility"}, "wheat [2]": {"test_system": "wheat", "conditions": "cited from earlier work"}, "[3]": {"conditions": "at minimum effective dose for complete male sterility"}, "[4]": {"conditions": "wheat, side effects on plant and seed"}}, "note": "Like-named read-outs stand apart in the source and are kept apart here.", "data": [{"smiles": "Cc1cc(=O)c(C(=O)[O-])nn1-c1ccc(Cl)cc1.[K+]", "note": "[CH9701, potassium 1-[4-chlorophenyl]-1,4 dihydro-6-methyl-4-oxopyridazine-3-carboxylate]", "values": [{"measurement": "Female sterility", "setting": "wheat plants", "result": "high female sterility"}, {"measurement": "damage to florets", "setting": "wheat plants", "result": "damage to florets"}, {"measurement": "male sterility", "setting": "wheat plants", "result": "complete male sterility"}, {"measurement": "seed set", "setting": "wheat plants", "result": "low seed set"}, {"measurement": "female sterility (CH9701 compared with CH9832)", "setting": "wheat [1]; [3]", "result": "higher"}, {"measurement": "seed germination (CH9701 compared with CH9832)", "setting": "wheat [1]; [3]", "result": "comparable"}, {"measurement": "seed shriveling (CH9701 compared with CH9832)", "setting": "wheat [1]; [3]", "result": "higher"}, {"measurement": "Female sterility", "setting": "wheat [1]; variety PBW343", "result": 88.3}, {"measurement": "Germination (%)", "setting": "wheat [1]; variety PBW343", "result": 95, "unit": "%"}, {"measurement": "Max. seed shriveling (Scale 1-5)", "setting": "wheat [1]; variety PBW343", "result": 3}, {"measurement": "Seed setting", "setting": "wheat [1]; variety PBW343", "result": 20.0}, {"measurement": "Effective dose", "setting": "wheat [1]; variety PBW343", "result": 500}, {"measurement": "Female sterility", "setting": "wheat [1]; variety WH542", "result": 90.7}, {"measurement": "Germination (%)", "setting": "wheat [1]; variety WH542", "result": 85, "unit": "%"}, {"measurement": "Max. seed shriveling (Scale 1-5)", "setting": "wheat [1]; variety WH542", "result": 2}, {"measurement": "Seed setting", "setting": "wheat [1]; variety WH542", "result": 56.7}, {"measurement": "Effective dose", "setting": "wheat [1]; variety WH542", "result": 250}]}, {"smiles": "Cc1cc(=O)c(C(=O)[O-])nn1-c1ccc(F)c(Cl)c1.[K+]", "note": "[CH9832, potassium 1-[4-fluoro, 3-chlorophenyl]-1,4 dihydro6-methyl-4-oxopyridazine-3-carboxylate]", "values": [{"measurement": "Female sterility", "setting": "wheat plants", "result": "low female sterility"}, {"measurement": "damage to florets", "setting": "wheat plants", "result": "no damage to florets"}, {"measurement": "male sterility", "setting": "wheat plants", "result": "complete male sterility"}, {"measurement": "seed set", "setting": "wheat plants", "result": "low seed set"}, {"measurement": "seed germination (CH9701 compared with CH9832)", "setting": "wheat [1]; [3]", "result": "comparable"}, {"measurement": "seed setting (CH9832 compared with CH9701)", "setting": "wheat [1]; [3]", "result": "numerically higher"}, {"measurement": "Female sterility", "setting": "wheat [1]; variety PBW343", "result": 40.2}, {"measurement": "Germination (%)", "setting": "wheat [1]; variety PBW343", "result": 90, "unit": "%"}, {"measurement": "Max. seed shriveling (Scale 1-5)", "setting": "wheat [1]; variety PBW343", "result": 2}, {"measurement": "Seed setting", "setting": "wheat [1]; variety PBW343", "result": 49.0}, {"measurement": "Effective dose", "setting": "wheat [1]; variety PBW343", "result": 500}, {"measurement": "Female sterility", "setting": "wheat [1]; variety WH542", "result": 10.7}, {"measurement": "Germination (%)", "setting": "wheat [1]; variety WH542", "result": 65, "unit": "%"}, {"measurement": "Max. seed shriveling (Scale 1-5)", "setting": "wheat [1]; variety WH542", "result": 2}, {"measurement": "Seed setting", "setting": "wheat [1]; variety WH542", "result": 65.5}, {"measurement": "Effective dose", "setting": "wheat [1]; variety WH542", "result": 500}]}, {"smiles": "COc1nc(=O)n(-c2ccc(Cl)cc2)c(=O)[nH]1.OCCN(CCO)CCO", "note": "[DPX 3778]", "values": [{"measurement": "Sterility (optimum treatment) Female", "setting": "wheat [2]; wheat, optimum treatment", "result": "Sight"}, {"measurement": "Sterility (optimum treatment) Male", "setting": "wheat [2]; wheat, optimum treatment", "result": "High"}, {"measurement": "Remarks", "setting": "wheat [2]; [4]", "result": "Shorter plant, leaf"}]}, {"smiles": "CC(Cl)(Cl)C(=O)O", "note": "[Dalapon]", "values": [{"measurement": "Sterility (optimum treatment) Female", "setting": "wheat [2]; wheat, optimum treatment", "result": "Severe"}, {"measurement": "Sterility (optimum treatment) Male", "setting": "wheat [2]; wheat, optimum treatment", "result": "Partial"}, {"measurement": "Remarks", "setting": "wheat [2]; [4]", "result": "Severe plant damage"}]}, {"smiles": "O=P(O)(O)CCCl", "note": "[Ethephon]", "values": [{"measurement": "Sterility (optimum treatment) Female", "setting": "wheat [2]; wheat, optimum treatment", "result": "Significant"}, {"measurement": "Sterility (optimum treatment) Male", "setting": "wheat [2]; wheat, optimum treatment", "result": "High"}, {"measurement": "Remarks", "setting": "wheat [2]; [4]", "result": "Height and seed size"}]}, {"smiles": "C=C1C[C@]23C[C@@]1(O)CC[C@H]2[C@@]12C=C[C@H](O)[C@@](C)(C(=O)O1)[C@H]2[C@@H]3C(=O)O", "note": "[Gibberellic acid]", "values": [{"measurement": "Sterility (optimum treatment) Male", "setting": "wheat [2]; wheat, optimum treatment", "result": "Poor"}]}, {"smiles": "Cc1cc(=O)c(C(=O)[O-])nn1-c1ccc(Cl)cc1.[K+]", "note": "[Hybrex]", "values": [{"measurement": "Remarks", "setting": "wheat [2]; in vivo", "result": "Risk of damage"}, {"measurement": "Sterility (optimum treatment) Female", "setting": "wheat [2]; in vivo", "result": "Slight"}, {"measurement": "Sterility (optimum treatment) Male", "setting": "wheat [2]; wheat, optimum treatment", "result": "High"}]}, {"smiles": "CC(Cl)(CCl)C(=O)[O-].[Na+]", "note": "(stereo not shown) [Mendok]", "values": [{"measurement": "Remarks", "setting": "wheat [2]; in vivo", "result": "Severe plant damage,"}, {"measurement": "Sterility (optimum treatment) Female", "setting": "wheat [2]; in vivo", "result": "Significant"}, {"measurement": "Sterility (optimum treatment) Male", "setting": "wheat [2]; wheat, optimum treatment", "result": "Poor"}]}, {"smiles": "Cc1cc(C)n(-c2ccc(Cl)cc2)c(=O)c1C(=O)[O-].[Na+]", "note": "[RH-531]", "values": [{"measurement": "Sterility (optimum treatment) Female", "setting": "wheat [2]; wheat, optimum treatment", "result": "Significant"}, {"measurement": "Sterility (optimum treatment) Male", "setting": "wheat [2]; wheat, optimum treatment", "result": "High"}, {"measurement": "Remarks", "setting": "wheat [2]; [4]", "result": "Inhibit veg. Growth"}]}, {"smiles": "O=C(O)C1CNC1", "note": "[WL 84811]", "values": [{"measurement": "Sterility (optimum treatment) Female", "setting": "wheat [2]; wheat, optimum treatment", "result": "Very"}, {"measurement": "Sterility (optimum treatment) Male", "setting": "wheat [2]; wheat, optimum treatment", "result": "Nearly"}, {"measurement": "Remarks", "setting": "wheat [2]; [4]", "result": "Toxic residues in F1"}]}]}
